Measurements: patent EP0426075A1, “Benzylpyrrolidine derivatives as dopamine agonists” (SYNTEX (U.S.A.) INC., priority 1989, dated 1991)

Key:
[1] = tested on: conscious restrained spontaneously hypertensive rat; assay: Spontaneous Hypertensive Rats - antihypertensive activity, conscious restrained, oral; assay type: in vivo; conditions: for Peak decreases, mean blood pressure / Peak decreases, systolic blood pressure / heart rate following administration / duration of action: SHR, oral; for duration of action: blood pressure decrease; for Diastolic Blood Pressure (mm Hg) / Heart Rate (beats/ min) / Mean Blood Pressure (mm Hg) / Systolic Blood Pressure (mm Hg): change from control (XΔ ± SD), n = 4
Experimental: Finally, these compounds were screened for oral antihypertensive activity in the conscious restrained rat. Adult male SHR were instrumented for blood pressure and heart rate measurements under light ether anesthesia. The animals were maintained on a plexiglass restraining board following surgery, and were allowed a 1 hour recovery period prior to the oral administration of the test compounds.
The compounds of this invention were screened for oral antihypertensive activity in the conscious restrained spontaneously hypertensive rat.
Male spontaneously hypertensive rats, SHR/NCrIBr (320-410 g) were fasted overnight. The following morning the left femoral artery and vein of each rat was cannulated under light ether anesthesia. Following surgery, the rats were placed on a rat restraining board and allowed to recover from the effects of the ether for 1 hour. ECG leads were placed on the animal's chest to monitor heart rate. Animals were divided into groups of 4 and dosed with the test compounds.
Blood pressure and heart rate readings were taken at 5 minute intervals for the first 15 minutes and […] thereafter for a duration of 4 hour post-compound administration. Data was evaluated by two- tailed paired t-tests.

[2] = tested on: saline-loaded spontaneously hypertensive rat (SHR); assay: Spontaneous Hypertensive Rat - diuretic activity, saline-loaded, oral; assay type: in vivo; conditions: for Urine K^+ (mEq/sample) / Urine Na^+ (mEq/sample) / Urine Volume: n = 7, mean ± S.D.
Experimental: Additionally, these compounds were examined for diuretic activity for 6 hours following oral compound administration in the saline-loaded spontaneously hypertensive rat (SHR). Methods for this assay have been previously described (Rosenkranz, et al, Proc. West. Pharmacol. Soc. 28 :87, 1985). The diuretic and natriuretic effects elicited by these compounds were characterized by an immediate onset of action.
The compounds of this invention were examined for diuretic activity for 6 hours following oral compound administration in the saline-loaded spontaneously hypertensive rat (SHR). Methods for this assay have been previously described (Rosenkranz, et al, Proc. West. Pharmacol. Soc. 28 :87, 1985). The diuretic and natriuretic effects elicited by these compounds were characterized by an immediate onset of action.
Male spontaneously hypertensive SHR/NCrIBR rats weighing 320-430 gms were divided into four groups of seven animals. All animals were food- and water-deprived overnight. The following morning, each group of rats was hydrated with deionized water (20 ml/kg, po) forty-five minutes prior to the administration of vehicle or the test compounds.
Following vehicle or drug, the rats were placed in individual metabolic units. Fifteen minutes post-dose the animals were saline-loaded (30 ml/kg, po). Urine was collected at 1, 3 and 6 hour intervals post-saline- load. Urine volumes were measured and sodium and potassium levels were determined by flame photometry.
A two-way analysis of variance with time, treatment and their interaction was run as a repeated measures analysis. A secondary model of one-way analysis of variance (by time) was run using specified contrasts. The p-values for the contrasts were adjusted using Fisher's LSD strategy at each time point.

[3] = po 3 mg/kg, cumulative time 1 hr
[4] = po 3 mg/kg, cumulative time 3 hr
[5] = po 3 mg/kg, cumulative time 6 hr
[6] = po 10 mg/kg, cumulative time 1 hr
[7] = po 10 mg/kg, cumulative time 3 hr
[8] = po 10 mg/kg, cumulative time 6 hr
[9] = po 30 mg/kg, cumulative time 1 hr
[10] = po 30 mg/kg, cumulative time 3 hr
[11] = po 30 mg/kg, cumulative time 6 hr

SMILES: Br.Br.CCCN(CCCCCCN1CCC[C@@H]1Cc1ccc(O)c(O)c1)CCc1ccc(O)cc1 [Test Compound 1, (R)-2-(3,4-dihydroxybenzyl)-1-[6-(N-(4-hydroxyphenethyl)-N-propylamino)hexyl]pyrrolidine dihydrobromide]
- Peak decreases, mean blood pressure [1]: about 20%
- Peak decreases, systolic blood pressure [1]: about 20%
- heart rate following administration [1]: not significantly altered
- duration of action [1]: up to 4 hours
- kaliuresis ([2]; 30 mg/kg, po, 1, 3, and 6 hour post-dose time points): significant kaliuresis
- Urine K^+ (mEq/sample) [2, 3]: 0.03±0.04 mEq/sample
- Urine Na^+ (mEq/sample) [2, 3]: 0.02±0.02 mEq/sample
- Urine Volume [2, 3]: 4.6 ± 1.9 mL
- Urine K^+ (mEq/sample) [2, 4]: 0.11±0.05 mEq/sample
- Urine Na^+ (mEq/sample) [2, 4]: 0.07±0.03 mEq/sample
- Urine Volume [2, 4]: 7.8 ± 1.4 mL
- Urine K^+ (mEq/sample) [2, 5]: 0.20±0.07 mEq/sample
- Urine Na^+ (mEq/sample) [2, 5]: 0.25±0.10 mEq/sample
- Urine Volume [2, 5]: 9.4 ± 1.8 mL
- Urine K^+ (mEq/sample) [2, 6]: 0.06±0.03 mEq/sample
- Urine Na^+ (mEq/sample) [2, 6]: 0.28±0.13 mEq/sample
- Urine Volume [2, 6]: 9.9 ± 3.6 mL
- Urine K^+ (mEq/sample) [2, 7]: 0.16±0.08 mEq/sample
- Urine Na^+ (mEq/sample) [2, 7]: 0.51±0.22 mEq/sample
- Urine Volume [2, 7]: 11.4 ± 3.9 mL
- Urine K^+ (mEq/sample) [2, 8]: 0.22±0.11 mEq/sample
- Urine Na^+ (mEq/sample) [2, 8]: 0.51±0.27 mEq/sample
- Urine Volume [2, 8]: 11.8 ± 3.9 mL
- Urine K^+ (mEq/sample) [2, 9]: 0.07±0.02 mEq/sample
- Urine Na^+ (mEq/sample) [2, 9]: 0.61±0.16 mEq/sample
- Urine Volume [2, 9]: 14.7 ± 2.3 mL
- Urine K^+ (mEq/sample) [2, 10]: 0.24±0.05 mEq/sample
- Urine Na^+ (mEq/sample) [2, 10]: 1.13±0.25 mEq/sample
- Urine Volume [2, 10]: 18.6 ± 2.8 mL
- Urine K^+ (mEq/sample) [2, 11]: 0.31±0.06 mEq/sample
- Urine Na^+ (mEq/sample) [2, 11]: 1.31±0.27 mEq/sample
- Urine Volume [2, 11]: 19.3 ± 2.7 mL

SMILES: Br.Br.CCCN(CCCCCCN1CCC[C@@H]1Cc1ccc(O)c(O)c1)CCc1cccc(O)c1 [Test Compound 2, (R)-2-(3,4-dihydroxybenzyl)-1-[6-(N-(3-hydroxyphenethyl)-N-propylamino)hexyl]pyrrolidine dihydrobromide]
- Peak decreases, mean blood pressure [1]: 17%
- Peak decreases, systolic blood pressure [1]: 17%
- heart rate following administration [1]: not significantly altered
- duration of action [1]: up to 4 hours
- Diastolic Blood Pressure (mm Hg) ([1]; po 3 mg/kg, 1 hour): -8 ± 12 mm Hg
- Heart Rate (beats/ min) ([1]; po 3 mg/kg, 1 hour): -5 ± 12 beats/ min
- Mean Blood Pressure (mm Hg) ([1]; po 3 mg/kg, 1 hour): -12 ± 18 mm Hg
- Systolic Blood Pressure (mm Hg) ([1]; po 3 mg/kg, 1 hour): -13 ± 25 mm Hg
- Diastolic Blood Pressure (mm Hg) ([1]; po 3 mg/kg, 2 hours): -6 ± 3 mm Hg
- Heart Rate (beats/ min) ([1]; po 3 mg/kg, 2 hours): 5 ± 11 beats/ min
- Mean Blood Pressure (mm Hg) ([1]; po 3 mg/kg, 2 hours): -7 ± 8 mm Hg
- Systolic Blood Pressure (mm Hg) ([1]; po 3 mg/kg, 2 hours): -9 ± 13 mm Hg
- Diastolic Blood Pressure (mm Hg) ([1]; po 3 mg/kg, 3 hours): -4 ± 17 mm Hg
- Heart Rate (beats/ min) ([1]; po 3 mg/kg, 3 hours): 6 ± 18 beats/ min
- Mean Blood Pressure (mm Hg) ([1]; po 3 mg/kg, 3 hours): -8 ± 14 mm Hg
- Systolic Blood Pressure (mm Hg) ([1]; po 3 mg/kg, 3 hours): -19 ± 22 mm Hg
- Diastolic Blood Pressure (mm Hg) ([1]; po 3 mg/kg, 4 hours): -9 ± 7 mm Hg
- Heart Rate (beats/ min) ([1]; po 3 mg/kg, 4 hours): 10 ± 23 beats/ min
- Systolic Blood Pressure (mm Hg) ([1]; po 3 mg/kg, 4 hours): -29 ± 19 mm Hg
- Diastolic Blood Pressure (mm Hg) ([1]; po 10 mg/kg, 1 hour): -19 ± 3 mm Hg
- Heart Rate (beats/ min) ([1]; po 10 mg/kg, 1 hour): -11 ± 6 beats/ min
- Mean Blood Pressure (mm Hg) ([1]; po 10 mg/kg, 1 hour): -21 ± 3 mm Hg
- Systolic Blood Pressure (mm Hg) ([1]; po 10 mg/kg, 1 hour): -26 ± 6 mm Hg
- Diastolic Blood Pressure (mm Hg) ([1]; po 10 mg/kg, 2 hours): -11 ± 21 mm Hg
- Heart Rate (beats/ min) ([1]; po 10 mg/kg, 2 hours): -6 ± 8 beats/ min
- Mean Blood Pressure (mm Hg) ([1]; po 10 mg/kg, 2 hours): -21 ± 8 mm Hg
- Systolic Blood Pressure (mm Hg) ([1]; po 10 mg/kg, 2 hours): -28 ± 10 mm Hg
- Diastolic Blood Pressure (mm Hg) ([1]; po 10 mg/kg, 3 hours): -19 ± 8 mm Hg
- Heart Rate (beats/ min) ([1]; po 10 mg/kg, 3 hours): -5 ± 11 beats/ min
- Mean Blood Pressure (mm Hg) ([1]; po 10 mg/kg, 3 hours): -27 ± 4 mm Hg
- Systolic Blood Pressure (mm Hg) ([1]; po 10 mg/kg, 3 hours): -36 ± 23 mm Hg
- Diastolic Blood Pressure (mm Hg) ([1]; po 10 mg/kg, 4 hours): -16 ± 7 mm Hg
- Heart Rate (beats/ min) ([1]; po 10 mg/kg, 4 hours): 1 ± 3 beats/ min
- Mean Blood Pressure (mm Hg) ([1]; po 10 mg/kg, 4 hours): -22 ± 12 mm Hg
- Systolic Blood Pressure (mm Hg) ([1]; po 10 mg/kg, 4 hours): -31 ± 20 mm Hg
- Diastolic Blood Pressure (mm Hg) ([1]; po 30 mg/kg, 1 hour): -6 ± 5 mm Hg
- Heart Rate (beats/ min) ([1]; po 30 mg/kg, 1 hour): -1 ± 10 beats/ min
- Mean Blood Pressure (mm Hg) ([1]; po 30 mg/kg, 1 hour): -5 ± 9 mm Hg
- Systolic Blood Pressure (mm Hg) ([1]; po 30 mg/kg, 1 hour): -4 ± 14 mm Hg
- Diastolic Blood Pressure (mm Hg) ([1]; po 30 mg/kg, 2 hours): -17 ± 6 mm Hg
- Heart Rate (beats/ min) ([1]; po 30 mg/kg, 2 hours): 9 ± 10 beats/ min
- Mean Blood Pressure (mm Hg) ([1]; po 30 mg/kg, 2 hours): -14 ± 14 mm Hg
- Systolic Blood Pressure (mm Hg) ([1]; po 30 mg/kg, 2 hours): -18 ± 10 mm Hg
- Diastolic Blood Pressure (mm Hg) ([1]; po 30 mg/kg, 3 hours): -15 ± 5 mm Hg
- Heart Rate (beats/ min) ([1]; po 30 mg/kg, 3 hours): 18 ± 15 beats/ min
- Mean Blood Pressure (mm Hg) ([1]; po 30 mg/kg, 3 hours): -17 ± 11 mm Hg
- Systolic Blood Pressure (mm Hg) ([1]; po 30 mg/kg, 3 hours): -26 ± 17 mm Hg
- Diastolic Blood Pressure (mm Hg) ([1]; po 30 mg/kg, 4 hours): -20 ± 9 mm Hg
- Heart Rate (beats/ min) ([1]; po 30 mg/kg, 4 hours): 20 ± 16 beats/ min
- Systolic Blood Pressure (mm Hg) ([1]; po 30 mg/kg, 4 hours): -32 ± 20 mm Hg
- Urine K^+ (mEq/sample) [2, 3]: 0.02±0.01 mEq/sample
- Urine Na^+ (mEq/sample) [2, 3]: 0.00±0.00 mEq/sample
- Urine Volume [2, 3]: 5.2 ± 1.4 mL
- Urine K^+ (mEq/sample) [2, 4]: 0.09±0.04 mEq/sample
- Urine Na^+ (mEq/sample) [2, 4]: 0.06±0.04 mEq/sample
- Urine Volume [2, 4]: 7.9 ± 0.7 mL
- Urine K^+ (mEq/sample) [2, 5]: 0.17±0.05 mEq/sample
- Urine Na^+ (mEq/sample) [2, 5]: 0.19±0.07 mEq/sample
- Urine Volume [2, 5]: 9.1 ± 0.8 mL
- Urine K^+ (mEq/sample) [2, 6]: 0.02±0.01 mEq/sample
- Urine Na^+ (mEq/sample) [2, 6]: 0.09±0.05 mEq/sample
- Urine Volume [2, 6]: 8.9 ± 1.6 mL
- Urine K^+ (mEq/sample) [2, 7]: 0.10±0.06 mEq/sample
- Urine Na^+ (mEq/sample) [2, 7]: 0.26±0.12 mEq/sample
- Urine Volume [2, 7]: 11.2 ± 2.0 mL
- Urine K^+ (mEq/sample) [2, 8]: 0.13±0.09 mEq/sample
- Urine Na^+ (mEq/sample) [2, 8]: 0.31±0.17 mEq/sample
- Urine Volume [2, 8]: 11.7 ± 2.4 mL
- Urine K^+ (mEq/sample) [2, 9]: 0.03±0.02 mEq/sample
- Urine Na^+ (mEq/sample) [2, 9]: 0.16±0.05 mEq/sample
- Urine Volume [2, 9]: 13.0 ± 2.2 mL
- Urine K^+ (mEq/sample) [2, 10]: 0.13±0.07 mEq/sample
- Urine Na^+ (mEq/sample) [2, 10]: 0.40±0.12 mEq/sample
- Urine Volume [2, 10]: 15.7 ± 2.1 mL
- Urine K^+ (mEq/sample) [2, 11]: 0.17±0.09 mEq/sample
- Urine Na^+ (mEq/sample) [2, 11]: 1.45±0.12 mEq/sample
- Urine Volume [2, 11]: 15.9 ± 2.1 mL
